Measurements taken from patent US20190328712A1 (Treeway TW001 B.V., priority 2017, published 2019).

Experiments:
[1] = Single 60 mg dose of Radicut edaravone solution, oral and i.v. infusion, plasma pharmacokinetics in dogs; assay type: in vivo; settings: male, beagle, dog, iv, i.v. infusion 60 mg (15 min)
Protocol: The study was conducted in a group of 4 male beagle dogs. […] After a wash-out period of 2 days, the animals received an intravenous infusion of two Radicut® ampoules (15 minutes infusion time).

[2] = Single dose, randomized, two-period cross-over study, oral solution 140 mg vs i.v. 60 mg, plasma pharmacokinetics; assay type: in vivo; settings: human
Protocol: A single dose, randomized, two-period, cross-over study was conducted in 18 healthy male and female human subjects.

[3] = Rate of dissolution of edaravone in water; assay type: physicochemical; settings: in the presence of an alkalizing agent
[4] = Single 60 mg dose of Radicut edaravone solution, oral and i.v. infusion, plasma pharmacokinetics in dogs; assay type: in vivo; settings: male, beagle, dog; for concentration at […]: 0.25 hrs
[5] = rats, oral, 'raw' edaravone suspended with 0.5% CMC-Na, vs 100% intravenous; cited from earlier work
[6] = ALS patients, Week 24; cited from earlier work
[7] = both sexes, plasma, iv, i.v. infusion 60 mg (60 minutes)
[8] = both sexes, plasma, iv, i.v. infusion (60 mg, 60 minutes)
[9] = both sexes, plasma, oral administration 140 mg
[10] = both sexes, plasma, oral administration (140 mg)
[11] = iv, i.v. infusion 60 mg (15 min)

CC1=NN(c2ccccc2)C(=O)C1 [edaravone, 3-methyl-1-phenyl-2-pyrazolin-5-one]
Tmax ([1]; 60 mg): 15 min | concentration at 0.083 h ([1]; 0.083 hrs): 3060 ng/mL | concentration at 0.5 h ([1]; 0.5 hrs): 648 ng/mL | concentration at 1 h ([1]; 1 hrs): 140 ng/mL | concentration at 2 h ([1]; 2 hrs): 49 ng/mL | concentration at 4 h ([1]; 4 hrs): 17 ng/mL | concentration at 8 h ([1]; 8 hrs): 6 ng/mL | bioavailability ([2]; both sexes, plasma, oral, 140 mg, oral aqueous solution 140 mg compared to i.v. infusion 60 mg, read-out: systemic / absolute bioavailability (Fabs)): ~80% | AUC(0-inf) [2, 7]: 1300 ng·h/mL | AUC(0-t) [2, 7]: 1290 ng·h/mL | Cmax [2, 7]: 1030 ng/mL | Tmax [2, 7]: 60 min | concentration at 0.17 h [2, 8]: 380 ng/mL | concentration at 0.5 h [2, 8]: 713 ng/mL | concentration at 1 h [2, 8]: 990 ng/mL | concentration at 1.5 h [2, 8]: 321 ng/mL | concentration at 4 h [2, 8]: 42 ng/mL | concentration at 6 h [2, 8]: 14 ng/mL | concentration at 8 h [2, 8]: 8 ng/mL | concentration at 10 h [2, 8]: 5 ng/mL | AUC(0-inf) [2, 9]: 2410 ng·h/mL | AUC(0-t) [2, 9]: 2390 ng·h/mL | Cmax [2, 9]: 2940 ng/mL | concentration at 0.083 h ([2]; both sexes, plasma, oral administration (140 mg), 0.083 hrs): 1200 ng/mL | concentration at 0.17 h [2, 10]: 2360 ng/mL | concentration at […] ([2]; both sexes, plasma, oral administration (140 mg), 0.25 hrs): 2630 ng/mL | concentration at 0.5 h [2, 10]: 1810 ng/mL | concentration at 1 h [2, 10]: 689 ng/mL | concentration at 1.5 h [2, 10]: 354 ng/mL | concentration at 2 h ([2]; both sexes, plasma, oral administration (140 mg), 2 hrs): 203 ng/mL | concentration at 4 h [2, 10]: 68 ng/mL | concentration at 6 h [2, 10]: 24 ng/mL | concentration at 8 h [2, 10]: 13 ng/mL | concentration at 10 h [2, 10]: 9 ng/mL | time to peak maximum concentration after administration ([2]; oral administration 140 mg): about 15 min | rate at which edaravone dissolves in water [3]: increased substantially | bioavailability ([4]; oral 60 mg compared to iv infusion, read-out: systemic bioavailability (Fabs)): 34% | AUC(0-inf) ([4]; oral administration 60 mg): 553 ng·h/mL | AUC(0-t) ([4]; oral administration 60 mg): 542 ng·h/mL | Cmax ([4]; oral administration 60 mg): 2310 ng/mL | concentration at 0.083 h ([4]; oral administration 60 mg, 0.083 hrs): 2310 ng/mL | concentration at 0.17 h ([4]; oral administration 60 mg, 0.17 hrs): 994 ng/mL | concentration at […] ([4]; oral administration 60 mg): 491 ng/mL | concentration at 0.5 h ([4]; oral administration 60 mg, 0.5 hrs): 185 ng/mL | concentration at 1 h ([4]; oral administration 60 mg, 1 hrs): 84 ng/mL | concentration at 1.5 h ([4]; oral administration 60 mg, 1.5 hrs): 51 ng/mL | concentration at 2 h ([4]; oral administration 60 mg, 2 hrs): 36 ng/mL | concentration at 4 h ([4]; oral administration 60 mg, 4 hrs): 11 ng/mL | concentration at 6 h ([4]; oral administration 60 mg, 6 hrs): 5 ng/mL | Tmax ([4]; po, 60 mg, oral administration 60 mg): ~5 min | AUC(0-inf) [4, 11]: 1630 ng·h/mL | AUC(0-t) [4, 11]: 1600 ng·h/mL | Cmax [4, 11]: 4380 ng/mL | concentration at […] [4, 11]: 4380 ng/mL | concentration at 10 h ([4]; iv, i.v. infusion 60 mg (15 min), 10 hrs): 5 ng/mL | absolute bioavailability (Fabs) [5]: 5.23% | decline on a clinical assessment of daily functioning compared to placebo [6]: declined less
